Reference: PMC9403976, “Elucidating the path to Plasmodium prolyl-tRNA synthetase inhibitors that overcome halofuginone resistance” (Nature Communications, 2022)
Values joined by “and” are separate entries in the source; they are usually repeats but may differ in a detail not shown here. Equal values may be shown once. Read-outs that look alike come from different tables or passages of the source.

Experiments:
[1] = tested on: halofuginone-induced P. falciparum (elevated proline homeostasis); test: P. falciparum ABS growth assay, SYBR Green, 72 h, halofuginone-induced parasites; format: cell-based, Plasmodium falciparum; settings: for parasite growth, replicate wells (Fig 1b): Halofuginone-Induced
Procedure, shortened: (§1)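 Dd2-derived erythrocytic-stage parasites at 1% parasitemia and 1% hematocrit in RPMI + 0.5% Albumax were exposed to compounds in triplicate dose-response. Controls were 10 μM dihydroartemisinin (kill) and no-compound wells (growth). Growth was read by SYBR Green 1 fluorescence after 72 h and used to derive EC50.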

[2] = tested on: P. falciparum Dd2-2D4 NCP26 selections S1-3; test: ABS growth assay on bulk populations and clones from NCP26 resistance selections S1-3; format: cell-based, Plasmodium falciparum; settings: for EC50: Plasmodium falciparum
Protocol: In short, P. falciparum erythrocytic-stage parasites at 1% parasitemia and 1% hematocrit in RPMI + 0.5% Albumax were seeded at 40 μL/well in 384-well plates with test compounds in triplicate, dose-response format with 10 μM dihydroartemisinin as a kill-control and blank (no compound) wells as a growth-control. […] After 72 h, growth was quantified by measuring fluorescence (Molecular Devices SpectraMax iD5) following SYBR Green 1 staining. Data were analyzed in Excel and plotted in PRISM (V. 8.4.3–9.1.0, GraphPad).
This cycle was repeated for ~50 generations (~100 days), corresponding to 5–6 cycles of drug pressure.
Clonal parasites were isolated from each selection flask by limiting dilution of ring stage parasites in 96-well plates to an average of 0.8 and 0.2 parasites per well.

[3] = tested on: HFGR-I P. falciparum (elevated proline homeostasis and PfcProRS^L482H); test: P. falciparum ABS growth assay, SYBR Green, 72 h, HFGR-I parasites; format: cell-based, Plasmodium falciparum; settings: for parasite growth, replicate wells (Fig 1b): HFGR-I
Procedure, shortened: as §1

[4] = molecular target: T1, PfcProRS (Plasmodium falciparum, UniProt Q8I5R7); format: binding; settings: for dose-response signal (normalized), SI Fig 8: single replicates, listed as NCP26 (3)
T1 construct: made in house; host or cells: E. coli SoluBL-21

[5] = Log[inhibitor] (M) -5.602, listed as NCP26 (3)
[6] = Log[inhibitor] (M) -6.806, listed as NCP26 (3)
[7] = Log[inhibitor] (M) -7.107, listed as NCP26 (3)
[8] = Log[inhibitor] (M) -7.408, listed as NCP26 (3)
[9] = Log[inhibitor] (M) -7.709, listed as NCP26 (3)
[10] = Log[inhibitor] (M) -8.010, listed as NCP26 (3)

T1 sequence (Q8I5R7 249-746): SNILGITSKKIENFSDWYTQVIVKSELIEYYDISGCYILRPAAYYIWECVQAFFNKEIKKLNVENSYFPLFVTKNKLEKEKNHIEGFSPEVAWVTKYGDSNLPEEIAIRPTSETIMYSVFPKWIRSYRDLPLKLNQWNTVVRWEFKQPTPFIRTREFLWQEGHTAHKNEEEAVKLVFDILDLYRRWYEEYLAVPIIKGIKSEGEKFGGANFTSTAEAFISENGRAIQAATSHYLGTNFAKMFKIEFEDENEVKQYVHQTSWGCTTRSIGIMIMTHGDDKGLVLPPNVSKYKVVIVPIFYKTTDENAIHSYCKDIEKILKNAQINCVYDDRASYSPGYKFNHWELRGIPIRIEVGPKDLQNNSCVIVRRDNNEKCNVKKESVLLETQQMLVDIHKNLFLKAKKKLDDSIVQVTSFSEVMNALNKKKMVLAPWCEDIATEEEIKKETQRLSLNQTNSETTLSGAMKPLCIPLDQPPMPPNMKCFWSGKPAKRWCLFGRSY

## O=C(NC1Cc2ccccc2C1)c1nccnc1NC(=O)N1CCCCC1 [NCP26]
[1]; Log[inhibitor] (M) -4.699, listed as NCP26 (3)
  parasite growth, replicate wells (Fig 1b): 0.00E+00 and -1.00E+00 and -2.00E+00
[1]; Log[inhibitor] (M) -5.000, listed as NCP26 (3)
  parasite growth, replicate wells (Fig 1b): 1.00E+00 (2×) and -1.00E+00
[1]; Log[inhibitor] (M) -5.301, listed as NCP26 (3)
  parasite growth, replicate wells (Fig 1b): -1.00E+00 (2×) and 7.00E+00
[1]; [5]
  parasite growth, replicate wells (Fig 1b): 1.00E+00 and 5.00E+00 and 0.00E+00
[1]; Log[inhibitor] (M) -5.903, listed as NCP26 (3)
  parasite growth, replicate wells (Fig 1b): 0.00E+00 and -1.00E+00 (2×)
[1]; Log[inhibitor] (M) -6.204
  parasite growth, replicate wells (Fig 1b): -2.00E+00
  dose-response value, Replicates 1-3 (SI Fig 2e): -2.0
[1]; Log[inhibitor] (M) -6.505, listed as NCP26 (3)
  parasite growth, replicate wells (Fig 1b): 0.00E+00 (2×) and -1.00E+00
[1]; [6]
  parasite growth, replicate wells (Fig 1b): 1.80E+01 (2×) and 1.90E+01
[1]; [7]
  parasite growth, replicate wells (Fig 1b): 9.50E+01 and 8.90E+01 and 9.10E+01
[1]; [8]
  parasite growth, replicate wells (Fig 1b): 1.05E+02 and 1.12E+02 and 1.07E+02
[1]; [9]
  parasite growth, replicate wells (Fig 1b): 1.09E+02 and 1.08E+02 and 1.10E+02
[1]; [10]
  parasite growth, replicate wells (Fig 1b): 9.90E+01 and 1.01E+02 and 1.04E+02
[2]; DD2, cell line S1 - Clone A8, read-out: EC50 [nM] mean
  EC50: 68.1 nM
[2]; DD2, cell line S1 - bulk population, read-out: EC50 [nM] mean
  EC50: 102 nM
[2]; DD2, cell line S2 - Clone A3, read-out: EC50 [nM] mean
  EC50: 1240 nM
[2]; DD2, cell line S2 - Clone B9, read-out: EC50 [nM] mean
  EC50: 2930 nM
[2]; DD2, cell line S2 - Clone C5, read-out: EC50 [nM] mean
  EC50: 1580 nM
[2]; DD2, cell line S2 - bulk population, read-out: EC50 [nM] mean
  EC50: 1340 nM
[2]; DD2, cell line S3 - Clone B3, read-out: EC50 [nM] mean
  EC50: 2810 nM
[2]; DD2, cell line S3 - Clone B7, read-out: EC50 [nM] mean
  EC50: 2450 nM
[2]; DD2, cell line S3 - bulk population, read-out: EC50 [nM] mean
  EC50: 2000 nM
[2]; DD2, read-out: EC50 [nM] mean, cell line S3 - Clone B2
  EC50: 5110 nM
[2]; S1 - Clone A8, Log[NCP26] (M) -6.505
  parasite growth, dose-response point: 1
[2]; S1 - Clone A8, Log[NCP26] (M) -6.806
  parasite growth, dose-response point: 9
[2]; S1 - Clone A8, Log[NCP26] (M) -7.107
  parasite growth, dose-response point: 33 and 29
[2]; S1 - Clone A8, Log[NCP26] (M) -7.408
  parasite growth, dose-response point: 93 and 97 and 101
[2]; S2 - Clone A3, Log[NCP26] (M) -6.505
  parasite growth, dose-response point: 93 and 92 and 86
[2]; S2 - Clone A3, Log[NCP26] (M) -6.806
  parasite growth, dose-response point: 96 and 98 and 93
[2]; S2 - Clone A3, Log[NCP26] (M) -7.107
  parasite growth, dose-response point: 100 and 98
[2]; S2 - Clone A3, Log[NCP26] (M) -7.408
  parasite growth, dose-response point: 99 and 101 and 100
[2]; S2 - Clone B9, Log[NCP26] (M) -6.505
  parasite growth, dose-response point: 98 and 112 and 97
[2]; S2 - Clone B9, Log[NCP26] (M) -6.806
  parasite growth, dose-response point: 107 and 93 and 96
[2]; S2 - Clone B9, Log[NCP26] (M) -7.107
  parasite growth, dose-response point: 96 and 110 and 113
[2]; S2 - Clone B9, Log[NCP26] (M) -7.408
  parasite growth, dose-response point: 107 and 94 and 102
[2]; S2 - Clone B9, Log[NCP26] (M) -7.709
  parasite growth, dose-response point: 99 and 93 and 94
[2]; S2 - Clone C5, Log[NCP26] (M) -6.505
  parasite growth, dose-response point: 95 and 102
[2]; S2 - Clone C5, Log[NCP26] (M) -6.806
  parasite growth, dose-response point: 98 and 100 and 101
[2]; S2 - Clone C5, Log[NCP26] (M) -7.107
  parasite growth, dose-response point: 101 and 97
[2]; S2 - Clone C5, Log[NCP26] (M) -7.408
  parasite growth, dose-response point: 96 and 101 and 100
[2]; S2 - Clone C5, Log[NCP26] (M) -7.709
  parasite growth, dose-response point: 102 and 105
[2]; S3 - Clone A6, Log[NCP26] (M) -6.505
  parasite growth, dose-response point: 108 and 103 and 90
[2]; S3 - Clone A6, Log[NCP26] (M) -6.806
  parasite growth, dose-response point: 101 and 97
[2]; S3 - Clone A6, Log[NCP26] (M) -7.107
  parasite growth, dose-response point: 95 and 100 and 96
[2]; S3 - Clone A6, Log[NCP26] (M) -7.408
  parasite growth, dose-response point: 112 and 100 and 105
[2]; S3 - Clone A8, Log[NCP26] (M) -6.505
  parasite growth, dose-response point: 94 and 102 and 97
[2]; S3 - Clone A8, Log[NCP26] (M) -6.806
  parasite growth, dose-response point: 101 and 99 and 104
[2]; S3 - Clone A8, Log[NCP26] (M) -7.107
  parasite growth, dose-response point: 100 and 103 and 99
[2]; S3 - Clone A8, Log[NCP26] (M) -7.408
  parasite growth, dose-response point: 104 (2×) and 98
[2]; S3 - Clone B2, Log[NCP26] (M) -6.505
  parasite growth, dose-response point: 76 and 92 and 86
[2]; S3 - Clone B2, Log[NCP26] (M) -6.806
  parasite growth, dose-response point: 88 and 90 and 99
[2]; S3 - Clone B2, Log[NCP26] (M) -7.107
  parasite growth, dose-response point: 113 and 109 and 107
[2]; S3 - Clone B2, Log[NCP26] (M) -7.408
  parasite growth, dose-response point: 108 and 109
[2]; S3 - Clone B3, Log[NCP26] (M) -6.505
  parasite growth, dose-response point: 92 and 95
[2]; S3 - Clone B3, Log[NCP26] (M) -6.806
  parasite growth, dose-response point: 92 and 96 and 98
[2]; S3 - Clone B3, Log[NCP26] (M) -7.107
  parasite growth, dose-response point: 99 and 94
[2]; S3 - Clone B3, Log[NCP26] (M) -7.408
  parasite growth, dose-response point: 105 and 101 and 104
[2]; S3 - Clone B7, Log[NCP26] (M) -6.505
  parasite growth, dose-response point: 101 and 95 and 100
[2]; S3 - Clone B7, Log[NCP26] (M) -6.806
  parasite growth, dose-response point: 99 and 96 and 101
[2]; S3 - Clone B7, Log[NCP26] (M) -7.107
  parasite growth, dose-response point: 98 and 94 and 99
[2]; S3 - Clone B7, Log[NCP26] (M) -7.408
  parasite growth, dose-response point: 105 and 98
[3]; Log[inhibitor] (M) -4.699
  parasite growth, replicate wells (Fig 1b): 0.00E+00
  dose-response value, Replicates 1-3 (SI Fig 2f): 0
[3]; Log[inhibitor] (M) -5.000
  parasite growth, replicate wells (Fig 1b): 0.00E+00
  dose-response value, Replicates 1-3 (SI Fig 2f): 0
[3]; Log[inhibitor] (M) -5.301
  parasite growth, replicate wells (Fig 1b): 0.00E+00
  dose-response value, Replicates 1-3 (SI Fig 2f): 0
[3]; [5]
  parasite growth, replicate wells (Fig 1b): 0.00E+00 and 1.00E+00 (2×)
[3]; Log[inhibitor] (M) -5.903
  parasite growth, replicate wells (Fig 1b): 0.00E+00
  dose-response value, Replicates 1-3 (SI Fig 2f): 0
[3]; Log[inhibitor] (M) -6.204
  parasite growth, replicate wells (Fig 1b): 0.00E+00
  dose-response value, Replicates 1-3 (SI Fig 2f): 0
[3]; Log[inhibitor] (M) -6.505
  parasite growth, replicate wells (Fig 1b): 1.00E+00
  dose-response value, Replicates 1-3 (SI Fig 2f): 1
[3]; [6]
  parasite growth, replicate wells (Fig 1b): 7.00E+00 (2×) and 6.00E+00
[3]; [7]
  parasite growth, replicate wells (Fig 1b): 3.90E+01 and 3.70E+01 (2×)
[3]; [8]
  parasite growth, replicate wells (Fig 1b): 9.90E+01 and 1.07E+02 and 1.00E+02
[3]; [9]
  parasite growth, replicate wells (Fig 1b): 1.11E+02 (2×) and 1.00E+02
[3]; [10]
  parasite growth, replicate wells (Fig 1b): 1.08E+02 and 1.07E+02 and 1.06E+02
[4]
  binding mode with respect to substrates (ATP, proline): proline-uncompetitive
  fold increased affinity in the presence of proline: 52 fold
[4]; Log[inhibitor] (M) -6.301
  dose-response signal (normalized), SI Fig 8: -4.45E-02 and 1.59E-01 and 5.71E-02 and 4.55E-02 and 8.14E-02 and 4.48E-02
[4]; Log[inhibitor] (M) -6.602
  dose-response signal (normalized), SI Fig 8: 1.17E-01 and 1.10E-01 and 1.62E-01 and 1.06E-01 and 1.14E-01 and 3.45E-02
[4]; Log[inhibitor] (M) -6.904
  dose-response signal (normalized), SI Fig 8: -7.84E-03 and 4.23E-02 and 1.85E-01 and 6.33E-02 and -1.22E-02 and 1.04E-01
[4]; Log[inhibitor] (M) -7.205
  dose-response signal (normalized), SI Fig 8: 1.30E-01 and 1.69E-01 and 1.26E-02 and 6.32E-02 and 1.43E-01 and 5.72E-02
